Assays:
[1] = molecular target: D(1A) dopamine receptor (Homo sapiens, UniProt P21728); assay: Binding affinity to dopamine D1 receptor
[2] = molecular target: D(1B) dopamine receptor (Homo sapiens, UniProt P21918); assay: Binding affinity to dopamine D5 receptor
[3] = molecular target: D(2) dopamine receptor (Homo sapiens, UniProt P14416); assay: Binding affinity to dopamine D2 receptor
[4] = molecular target: T1, D(4) dopamine receptor (Homo sapiens, UniProt P21917); assay: Binding affinity to dopamine D4 receptor
T1 sequence (P21917 whole entry): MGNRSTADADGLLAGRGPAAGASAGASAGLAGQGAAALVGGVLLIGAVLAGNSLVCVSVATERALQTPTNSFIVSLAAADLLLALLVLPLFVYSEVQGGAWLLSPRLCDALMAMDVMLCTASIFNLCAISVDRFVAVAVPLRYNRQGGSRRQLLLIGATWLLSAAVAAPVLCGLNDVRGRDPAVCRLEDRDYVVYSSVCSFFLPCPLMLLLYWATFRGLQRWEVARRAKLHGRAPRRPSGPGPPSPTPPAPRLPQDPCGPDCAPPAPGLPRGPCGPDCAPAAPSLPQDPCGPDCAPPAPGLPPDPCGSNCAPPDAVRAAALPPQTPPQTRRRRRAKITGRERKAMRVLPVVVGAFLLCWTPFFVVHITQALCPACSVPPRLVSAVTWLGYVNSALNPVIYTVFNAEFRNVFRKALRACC

[5] = Selectivity ratio, Ki for dopamine D1 receptor to Ki for dopamine D2 receptor
[6] = AUC in rat; type: ADME, organism-based; conditions: plasma
[7] = Oral bioavailability in rat; type: ADME, organism-based; conditions: in vivo

Sequence of D(1A) dopamine receptor (P21728 whole entry): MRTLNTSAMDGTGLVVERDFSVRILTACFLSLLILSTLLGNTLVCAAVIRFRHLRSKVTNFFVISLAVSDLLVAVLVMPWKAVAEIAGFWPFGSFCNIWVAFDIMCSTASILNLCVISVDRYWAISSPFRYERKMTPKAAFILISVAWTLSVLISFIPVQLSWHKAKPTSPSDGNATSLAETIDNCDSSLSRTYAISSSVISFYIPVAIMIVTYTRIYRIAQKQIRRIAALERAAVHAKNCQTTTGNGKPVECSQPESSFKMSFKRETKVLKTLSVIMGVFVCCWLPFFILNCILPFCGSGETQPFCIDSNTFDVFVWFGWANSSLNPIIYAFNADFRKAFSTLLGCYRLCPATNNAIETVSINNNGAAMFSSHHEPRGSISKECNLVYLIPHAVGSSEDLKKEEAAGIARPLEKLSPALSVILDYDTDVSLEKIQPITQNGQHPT
Sequence of D(1B) dopamine receptor (P21918 whole entry): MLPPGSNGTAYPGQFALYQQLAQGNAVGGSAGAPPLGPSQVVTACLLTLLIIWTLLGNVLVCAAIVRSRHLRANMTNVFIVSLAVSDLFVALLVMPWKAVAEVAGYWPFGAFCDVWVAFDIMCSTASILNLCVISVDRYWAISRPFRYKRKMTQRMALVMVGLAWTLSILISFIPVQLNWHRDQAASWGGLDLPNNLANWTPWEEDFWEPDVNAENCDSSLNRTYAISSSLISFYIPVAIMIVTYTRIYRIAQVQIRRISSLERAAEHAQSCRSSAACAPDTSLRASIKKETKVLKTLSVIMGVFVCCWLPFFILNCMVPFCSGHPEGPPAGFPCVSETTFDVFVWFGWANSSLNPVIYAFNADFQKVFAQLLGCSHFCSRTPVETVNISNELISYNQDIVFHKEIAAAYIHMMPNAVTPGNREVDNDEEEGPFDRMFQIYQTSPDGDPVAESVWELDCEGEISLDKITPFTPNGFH
Sequence of D(2) dopamine receptor (P14416 whole entry): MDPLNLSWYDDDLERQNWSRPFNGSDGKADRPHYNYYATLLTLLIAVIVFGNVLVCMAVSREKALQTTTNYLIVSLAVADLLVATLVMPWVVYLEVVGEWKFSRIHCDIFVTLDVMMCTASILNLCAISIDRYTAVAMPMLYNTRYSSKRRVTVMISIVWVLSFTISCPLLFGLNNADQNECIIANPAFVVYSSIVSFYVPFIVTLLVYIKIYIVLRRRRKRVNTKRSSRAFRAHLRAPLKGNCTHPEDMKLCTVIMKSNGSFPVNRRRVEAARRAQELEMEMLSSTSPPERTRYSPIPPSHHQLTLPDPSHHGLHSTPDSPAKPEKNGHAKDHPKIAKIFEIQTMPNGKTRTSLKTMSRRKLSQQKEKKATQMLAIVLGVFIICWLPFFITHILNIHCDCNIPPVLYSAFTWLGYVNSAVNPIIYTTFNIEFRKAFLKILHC

SMILES | Ki [1] [nM] | Ki [2] [nM] | Ki [3] [nM] | Ki [4] [nM] | Ratio Ki [5] | AUC [6] [ng·h/mL] | bioavailability [7] [%]
CN1CCc2cc(Cl)c(O)cc2[C@@H](c2ccc(CN(C)S(=O)(=O)c3ccccc3)cc2)C1 | 0.6 | 1.2 | 331 | 4330 | – | – | –
CCNC(=O)Nc1cccc2c1CC[C@H]1[C@H]2c2cc(O)c(Cl)cc2CCN1C | 2.4 | – | 900 | – | – | – | –
CCC(=O)Nc1cccc2c1CC[C@H]1[C@H]2c2cc(O)c(Cl)cc2CCN1C | 2.3 | – | 500 | – | – | – | –
CN1CCc2cc(Cl)c(O)cc2[C@H]2c3ccc(NC(=O)Nc4c(Cl)cccc4Cl)cc3CC[C@@H]21 | 0.7 | – | 1090 | – | – | – | –
CN1CCc2cc(Cl)c(O)cc2[C@H]2c3cc(CN4CCCCC4)ccc3CC[C@@H]21 | 225 | – | 26 | – | 8.7 | – | –
CN1CCc2cc(Cl)c(O)cc2[C@H]2c3cccc(N)c3CC[C@@H]21 | 2.8 | 7 | 2100 | > 10000 | – | – | –
CN1CCc2cc(Cl)c(O)cc2[C@@H](c2ccc(CN(C3CCC3)S(C)(=O)=O)cc2)C1 | 0.5 | 5.9 | 2000 | > 10000 | – | – | –
CCNC(=O)Nc1ccc2c(c1)CC[C@H]1[C@H]2c2cc(O)c(Cl)cc2CCN1C | 1.5 | 7.1 | 6000 | > 10000 | – | – | –
CCS(=O)(=O)Nc1ccc2c(c1)CC[C@H]1[C@H]2c2cc(O)c(Cl)cc2CCN1C | 0.7 | 5.6 | 3300 | > 10000 | – | – | –
CN1CCc2cc(Cl)c(O)cc2[C@H]2c3ccc(NC(=O)C4CC4)cc3CC[C@@H]21 | 2.3 | – | > 10000 | – | – | – | –
CCS(=O)(=O)Nc1cccc2c1CC[C@H]1[C@H]2c2cc(O)c(Cl)cc2CCN1C | 5.8 | – | 618 | – | – | – | –
CN1CCc2cc(Cl)c(O)cc2[C@H]2c3ccc(NS(C)(=O)=O)cc3CC[C@@H]21 | 0.5 | 5.8 | 3000 | > 10000 | – | 2490 | 29
CN1CCc2cc(Cl)c(O)cc2[C@H]2c3cccc(NC(=O)C4CC4)c3CC[C@@H]21 | 5.7 | – | 2140 | – | – | – | –
CCOC(=O)Nc1ccc2c(c1)CC[C@H]1[C@H]2c2cc(O)c(Cl)cc2CCN1C | 1.4 | 3.3 | 3900 | > 10000 | – | – | –
CC(=O)N(Cc1ccc([C@H]2CN(C)CCc3cc(Cl)c(O)cc32)cc1)C1CCC1 | 0.2 | 13 | 159 | > 10000 | – | – | –
CN1CCc2cc(Cl)c(O)cc2[C@H]2c3ccc(N)cc3CC[C@@H]21 | 7 | 8.3 | 5400 | > 10000 | – | – | –
CN1CCc2cc(Cl)c(O)cc2[C@H]2c3cc(CN4CCN(c5ccccn5)CC4)ccc3CC[C@@H]21 | 152 | – | 1.3 | – | 117 | – | –
CN1CCc2cc(Cl)c(O)cc2[C@H]2c3cccc(NC(=O)Nc4c(Cl)cccc4Cl)c3CC[C@@H]21 | 7.1 | – | 566 | – | – | – | –
CN1CCc2cc(Cl)c(O)cc2[C@@H](c2ccc(CN(Cc3ccccc3)c3ccc(F)cc3F)cc2)C1 | 0.7 | – | 552 | – | – | – | –
CN1CCc2cc(Cl)c(O)cc2[C@H]2c3cccc(NS(C)(=O)=O)c3CC[C@@H]21 | 4.7 | – | 1000 | – | – | – | –
CN1CCc2cc(Cl)c(O)cc2[C@@H](c2ccc(CNc3ccccc3)cc2)C1 | 2 | – | 2000 | – | – | – | –
CN1CCc2cc(Cl)c(O)cc2[C@@H](c2ccc(CNC3CCC3)cc2)C1 | – | 3.9 | 2000 | > 10000 | – | – | –
CN1CCc2cc(Cl)c(O)cc2[C@H]2c3ccccc3CC[C@@H]21 [ECOPIPAM] | – | – | – | – | – | 156 | 0.6
CN1CCc2cc(Cl)c(O)cc2[C@@H](c2ccc(CN(C)S(C)(=O)=O)cc2)C1 | 0.5 | – | 6000 | – | – | – | –
